Data from ChEMBL document CHEMBL5543109, “Novel β-Hairpin Antimicrobial Peptide Containing the β-Turn Sequence of -NG- and the Tryptophan Zippers Facilitate Self-Assembly into Nanofibers, Exhibiting Excellent Antimicrobial Performance” (J Med Chem, 2024).
≈ marks a conversion by molar mass, not a printed value. Calls of active or inactive are those of the source. The calls are words filed in the database; no cut-off is given here.

Experiments:
Staphylococcus aureus [1] = test: Additive antibacterial activity against Staphylococcus aureus assessed as fractional inhibitory concentration index incubated for 18 hrs in presence of polymyxin B by checkerboard assay; assay type: functional
Pseudomonas aeruginosa [2] = test: Antibacterial activity against Pseudomonas aeruginosa ATCC 27853 incubated for 18 hrs by broth microdilution method; assay type: functional
Staphylococcus aureus [3] = test: Antibacterial activity against Staphylococcus aureus at 2 times MIC preincubated for 1 hr with trypsin followed by enzyme inactivation and bacterial addition and measured after 18 hrs; assay type: functional; settings: time 19 hrs
Staphylococcus aureus [4] = test: Additive antibacterial activity against Staphylococcus aureus 794 assessed as fractional inhibitory concentration index incubated for 18 hrs in presence of ciprofloxacin by checkerboard assay; assay type: functional
Staphylococcus aureus [5] = test: Antibacterial activity against Staphylococcus aureus 794 infected in BALB/c mouse skin wound infection model assessed as wound healing at 1 mg/ml, ip pre-infected with bacteria for 24 hrs followed by compound addition and measured after 13 days post infection; assay type: functional, organism-based; settings: time 12.0 day
Escherichia coli [6] = test: Antibacterial activity against Escherichia coli incubated for 18 hrs by broth microdilution method; assay type: functional
Pseudomonas aeruginosa [7] = test: Antibacterial activity against Pseudomonas aeruginosa incubated for 18 hrs in presence of NaCl by broth microdilution method; assay type: functional, organism-based
[8] = Acute toxicity in mouse assessed as cell swelling at 230.5 mg/kg, ip by H and E staining based assay; assay type: organism-based; settings: in vivo
Staphylococcus aureus [9] = test: Antibacterial activity against Staphylococcus aureus 794 infected in BALB/c mouse skin wound infection model assessed as wound healing by measuring thickened scab at 1 mg/ml, ip pre-infected with bacteria for 24 hrs followed by compound addition and measured on day 9; assay type: functional, organism-based; settings: time 9.0 day
Staphylococcus aureus [10] = test: Antibacterial activity against Staphylococcus aureus infected in BALB/c mouse systemic infection model assessed as reduction in kidney bacterial load at 5 to 10 mg/kg, ip measured after 8 hrs; assay type: functional, organism-based; settings: dose 5-10 mg/kg
Cell membrane = test: Induction of outer membrane permeabilization in Escherichia coli at 1/2 MIC measured immediately by NPN-dye based assay; assay type: cell membranes
Staphylococcus aureus [11] = test: Synergistic antibacterial activity against methicillin resistant Staphylococcus aureus assessed as fractional inhibitory concentration index incubated for 18 hrs in presence of rifampin by checkerboard assay; assay type: functional
Escherichia coli [12] = test: Antibacterial activity against Escherichia coli at 2 times MIC preincubated with 256 ug/ml LPS for 1 hr followed by bacterial addition and measured after 5 hrs; assay type: functional, organism-based; settings: time 6.0 hrs
Staphylococcus aureus [13] = test: Additive antibacterial activity against methicillin resistant Staphylococcus aureus 113 assessed as fractional inhibitory concentration index incubated for 18 hrs in presence of cefotaxime by checkerboard assay; assay type: functional
Staphylococcus aureus [14] = test: Synergistic antibacterial activity against methicillin resistant Staphylococcus aureus 75 assessed as fractional inhibitory concentration index incubated for 18 hrs in presence of kanamycin by checkerboard assay; assay type: functional
Escherichia coli [15] = test: Synergistic antibacterial activity against kanamycin resistant Escherichia coli assessed as fractional inhibitory concentration index incubated for 18 hrs in presence of gentamycin by checkerboard assay; assay type: functional
Staphylococcus aureus [16] = test: Additive antibacterial activity against Staphylococcus aureus 125 assessed as fractional inhibitory concentration index incubated for 18 hrs in presence of streptomycin by checkerboard assay; assay type: functional
Klebsiella pneumoniae = test: […] antibacterial activity against Klebsiella pneumoniae assessed as fractional inhibitory concentration index incubated for 18 hrs in presence of polymyxin B by checkerboard assay; assay type: functional
Escherichia coli [17] = test: Antibacterial activity against Escherichia coli infected in BALB/c mouse systemic infection model assessed as reduction in lung bacterial load at 5 to 10 mg/kg, ip measured after 24 hrs; assay type: functional, organism-based; settings: dose 5-10 mg/kg
[18] = Self-assembly property of compound in PBS assessed as beta-sheet formation by measuring particle size at 50 uM by […]; assay type: physicochemical; settings: buffer
Staphylococcus aureus [19] = test: Antibacterial activity against methicillin resistant Staphylococcus aureus incubated for 18 hrs by broth microdilution method; assay type: functional
Escherichia coli [20] = test: Antibacterial activity against rifampicin resistant Escherichia coli incubated for 18 hrs by broth microdilution method; assay type: functional
Staphylococcus aureus [21] = test: Antibacterial activity against Staphylococcus aureus 794 infected in BALB/c mouse skin wound infection model assessed as wound healing by measuring detached scab at 1 mg/ml, ip pre-infected with bacteria for 24 hrs followed by compound addition and measured on day 7; assay type: functional, organism-based; settings: time 7.0 day
Pseudomonas aeruginosa [22] = test: Antibacterial activity against Pseudomonas aeruginosa incubated for 18 hrs in presence of FeCl3 by broth microdilution method; assay type: functional, organism-based
Staphylococcus aureus [23] = test: Additive antibacterial activity against Staphylococcus aureus 794 assessed as fractional inhibitory concentration index incubated for 18 hrs in presence of kanamycin by checkerboard assay; assay type: functional
[24] = Acute toxicity in mouse assessed as mortality rate at 200 mg/kg, ip by karber method; assay type: organism-based; settings: in vivo, read-out: Activity
Staphylococcus aureus [25] = test: Additive antibacterial activity against Staphylococcus aureus assessed as fractional inhibitory concentration index incubated for 18 hrs in presence of bacitracin by checkerboard assay; assay type: functional
Staphylococcus aureus [26] = test: Antibacterial activity against Staphylococcus aureus 794 infected in BALB/c mouse skin wound infection model assessed as reduction in wound area at 1 mg/ml, ip pre-infected with bacteria for 24 hrs followed by compound addition and measured on day 5 in presence of vancomycin; assay type: functional, organism-based; settings: time 5.0 day

For `NCCCC[C@@H](NC(=O)[C@H](N)Cc1c[nH]c2ccccc12)C(=O)N[C@H](Cc1c[nH]c2ccccc12)C(=O)N[C@H](CCCCN)C(=O)N[C@H](Cc1c[nH]c2ccccc12)C(=O)N[C@@H](CC(N)=O)C(=O)NCC(=O)N[C@H](Cc1c[nH]c2ccccc12)C(=O)N[C@H](CCCCN)C(=O)N[C@H](Cc1c[nH]c2ccccc12)C(=O)N[C@H](CCCCN)C(=O)N[C@H](Cc1c[nH]c2ccccc12)C(N)=O`, the “fractional inhibitory concentration index (FICI)” value (Staphylococcus aureus [1]) was 1, the MIC (Pseudomonas aeruginosa [2]) was 4 µM (≈ 7.27 µg/mL) and the Activity (Staphylococcus aureus [3]) was 100%. The “fractional inhibitory concentration index (FICI)” value (Staphylococcus aureus [4]) was 0.563, the Activity (Staphylococcus aureus [5]) was “Active” and the MIC (Escherichia coli [6]) was 8 µM (≈ 14.5 µg/mL). For the same compound, the Activity (Pseudomonas aeruginosa [7]) was “Active”, the Activity [8] was “Toxic” and the Activity (Staphylococcus aureus [9]) was “Active”. For the same compound, the Activity (Staphylococcus aureus [10]) was “Active”, the Activity (Cell membrane) was 40% and the “fractional inhibitory concentration index (FICI)” value (Staphylococcus aureus [11]) was 0.313. For the same compound, the Activity (Escherichia coli [12]) was “inactive”, the “fractional inhibitory concentration index (FICI)” value (Staphylococcus aureus [13]) was 0.563 and the “fractional inhibitory concentration index (FICI)” value (Staphylococcus aureus [14]) was 0.5. For the same compound, the “fractional inhibitory concentration index (FICI)” value (Escherichia coli [15]) was 0.188, the “fractional inhibitory concentration index (FICI)” value (Staphylococcus aureus [16]) was 1 and the “fractional inhibitory concentration index (FICI)” value (Klebsiella pneumoniae) was 0.375. The Activity (Escherichia coli [17]) was “Active”, the Activity [18] was 874.9 nm and the MIC (Staphylococcus aureus [19]) was 8 µM (≈ 14.5 µg/mL). For the same compound, the MIC (Escherichia coli [20]) was 8 µM (≈ 14.5 µg/mL), the Activity (Staphylococcus aureus [21]) was “Active” and the Activity (Pseudomonas aeruginosa [22]) was “Active”. For the same compound, the “fractional inhibitory concentration index (FICI)” value (Staphylococcus aureus [23]) was 0.563, the mortality [24] was 20% and the “fractional inhibitory concentration index (FICI)” value (Staphylococcus aureus [25]) was 0.563. For the same compound, the Activity (Staphylococcus aureus [26]) was “Active”.
